In ChEMBL document CHEMBL3102848, “Carbamazepine derivatives with P2X4 receptor-blocking activity” (Bioorg Med Chem, 2014) one finds IC50 data, which are given here for six molecules.

For orientation: pIC50 means −log10 of the IC50, conventionally taken in molar units.

pIC50: −log10 of the molar value.

One assay addresses T1, P2X purinoceptor 4 (Mus musculus, UniProt Q9JJX6).
T1 sequence (Q9JJX6 whole entry): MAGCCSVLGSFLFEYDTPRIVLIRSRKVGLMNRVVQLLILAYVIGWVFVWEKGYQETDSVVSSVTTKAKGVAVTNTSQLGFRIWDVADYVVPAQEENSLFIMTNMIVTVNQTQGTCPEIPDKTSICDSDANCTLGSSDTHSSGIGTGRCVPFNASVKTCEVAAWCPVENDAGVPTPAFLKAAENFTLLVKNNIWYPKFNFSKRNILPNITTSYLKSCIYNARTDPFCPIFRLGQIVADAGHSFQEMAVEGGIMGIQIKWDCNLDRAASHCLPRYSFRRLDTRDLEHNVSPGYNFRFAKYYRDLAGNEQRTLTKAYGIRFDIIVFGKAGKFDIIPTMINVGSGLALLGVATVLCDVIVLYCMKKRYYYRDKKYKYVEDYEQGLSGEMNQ
Kind of assay: Antagonist activity at mouse P2X4 receptor assessed as inhibition of ATP-induced cytosolic calcium influx preincubated for 30 mins followed by ATP addition by Fluo-4 AM dye-based fluorescence assay.

The next assay deals with T2, P2X purinoceptor 7 (Homo sapiens, UniProt Q99572).
T2 sequence (Q99572 whole entry): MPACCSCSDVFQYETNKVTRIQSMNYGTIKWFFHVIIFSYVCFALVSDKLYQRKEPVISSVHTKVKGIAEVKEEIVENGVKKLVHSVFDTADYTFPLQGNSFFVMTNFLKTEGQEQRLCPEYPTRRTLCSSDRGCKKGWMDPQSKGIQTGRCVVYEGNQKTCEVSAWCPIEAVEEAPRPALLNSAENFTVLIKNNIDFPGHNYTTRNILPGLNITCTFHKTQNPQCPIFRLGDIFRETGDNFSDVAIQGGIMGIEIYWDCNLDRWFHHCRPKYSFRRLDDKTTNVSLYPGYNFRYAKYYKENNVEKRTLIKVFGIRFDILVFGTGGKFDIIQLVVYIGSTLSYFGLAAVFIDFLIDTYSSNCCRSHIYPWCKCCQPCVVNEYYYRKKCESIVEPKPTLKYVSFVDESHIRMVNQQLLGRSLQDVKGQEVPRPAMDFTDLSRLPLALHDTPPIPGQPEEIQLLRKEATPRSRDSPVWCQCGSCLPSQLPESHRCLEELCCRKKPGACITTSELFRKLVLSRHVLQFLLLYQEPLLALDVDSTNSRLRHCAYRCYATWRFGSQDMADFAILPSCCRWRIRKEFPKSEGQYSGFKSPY
In words: Antagonist activity at human P2X7 receptor expressed in human 1321N1 cells assessed as inhibition of ATP-induced cytosolic calcium influx preincubated for 30 mins followed by ATP addition by Fluo-4 AM dye-based fluorescence assay. The format is cell-based.

The target in another assay is T3, P2X purinoceptor 3 (Homo sapiens, UniProt P56373).
T3 sequence (P56373 whole entry): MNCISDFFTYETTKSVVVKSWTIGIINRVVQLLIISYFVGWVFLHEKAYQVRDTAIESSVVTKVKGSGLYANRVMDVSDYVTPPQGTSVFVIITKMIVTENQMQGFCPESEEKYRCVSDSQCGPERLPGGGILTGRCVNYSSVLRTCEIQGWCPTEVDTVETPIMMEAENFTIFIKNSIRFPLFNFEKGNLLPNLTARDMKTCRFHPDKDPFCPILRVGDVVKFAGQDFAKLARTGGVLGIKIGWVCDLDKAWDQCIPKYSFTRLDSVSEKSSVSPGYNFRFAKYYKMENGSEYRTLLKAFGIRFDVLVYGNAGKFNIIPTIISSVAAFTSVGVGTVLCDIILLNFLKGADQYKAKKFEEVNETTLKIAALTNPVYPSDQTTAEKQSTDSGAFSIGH
Kind of assay: Antagonist activity at human P2X3 receptor expressed in human 1321N1 cells assessed as inhibition of ATP-induced cytosolic calcium influx preincubated for 30 mins followed by ATP addition by Fluo-4 AM dye-based fluorescence assay. The format is cell-based.

Another assay has as its target T4, P2X purinoceptor 2 (Homo sapiens, UniProt Q9UBL9).
T4 sequence (Q9UBL9 whole entry): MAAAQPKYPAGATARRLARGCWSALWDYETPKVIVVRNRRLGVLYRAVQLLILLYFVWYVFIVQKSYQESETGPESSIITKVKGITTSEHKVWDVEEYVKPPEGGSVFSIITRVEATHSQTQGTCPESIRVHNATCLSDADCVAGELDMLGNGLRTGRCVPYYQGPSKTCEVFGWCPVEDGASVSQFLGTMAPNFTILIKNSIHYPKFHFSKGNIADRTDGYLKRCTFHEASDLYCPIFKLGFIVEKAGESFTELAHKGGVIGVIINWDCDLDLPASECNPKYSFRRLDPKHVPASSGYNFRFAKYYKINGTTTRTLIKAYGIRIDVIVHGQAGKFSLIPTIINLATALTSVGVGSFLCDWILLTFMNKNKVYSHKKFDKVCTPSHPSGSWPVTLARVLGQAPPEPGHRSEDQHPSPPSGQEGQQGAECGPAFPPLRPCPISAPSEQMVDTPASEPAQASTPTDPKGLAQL
In words: Antagonist activity at human P2X2 receptor expressed in human 1321N1 cells assessed as inhibition of ATP-induced cytosolic calcium influx preincubated for 30 mins followed by ATP addition by Fluo-4 AM dye-based fluorescence assay. It is filed as cell-based.

Another assay has as its target T5, P2X purinoceptor 1 (Homo sapiens, UniProt P51575).
T5 sequence (P51575 whole entry): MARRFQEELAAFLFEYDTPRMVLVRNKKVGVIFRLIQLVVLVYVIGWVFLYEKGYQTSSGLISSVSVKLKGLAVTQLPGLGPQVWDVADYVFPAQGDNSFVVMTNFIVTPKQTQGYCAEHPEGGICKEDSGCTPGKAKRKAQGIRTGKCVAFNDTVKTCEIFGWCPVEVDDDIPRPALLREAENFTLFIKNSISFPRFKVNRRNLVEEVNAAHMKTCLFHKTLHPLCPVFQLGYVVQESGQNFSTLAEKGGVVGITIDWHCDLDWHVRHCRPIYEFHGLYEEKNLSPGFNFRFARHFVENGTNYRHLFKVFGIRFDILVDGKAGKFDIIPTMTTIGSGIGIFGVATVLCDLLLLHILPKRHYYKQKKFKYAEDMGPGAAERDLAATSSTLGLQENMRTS
Kind of assay: Antagonist activity at human P2X1 receptor expressed in human 1321N1 cells assessed as inhibition of ATP-induced cytosolic calcium influx preincubated for 30 mins followed by ATP addition by Fluo-4 AM dye-based fluorescence assay. It is filed as cell-based.

Regarding `O=C(N1CCCC1)N1c2ccccc2C=Cc2ccccc21`, the pIC50 at P2X purinoceptor 4 is 3.91; on P2X purinoceptor 7 it was less than 4.00; on P2X purinoceptor 3 it was 4.53; on P2X purinoceptor 2, less than 4.00; at P2X purinoceptor 1, 4.16.
Consider `O=C(N1CCCCC1)N1c2ccccc2C=Cc2ccccc21`, for which the negative logarithm of the IC50 (pIC50) at P2X purinoceptor 4 is 3.99; on P2X purinoceptor 7 it was less than 4.00; on P2X purinoceptor 3, 5.10; at P2X purinoceptor 2, less than 4.00; at P2X purinoceptor 1, 4.68.
As to `CCCN(CCC)C(=O)N1c2ccccc2C=Cc2ccccc21`, the pIC50 on P2X purinoceptor 4 was less than 4.00; at P2X purinoceptor 7, less than 4.00; at P2X purinoceptor 3, 4.82; on P2X purinoceptor 2, less than 4.00; at P2X purinoceptor 1, 5.34.
As to `O=C(NC1CCCCC1)N1c2ccccc2C=Cc2ccccc21`, the negative logarithm of the IC50 (pIC50) was 4.01 on P2X purinoceptor 4; 4.39 on P2X purinoceptor 7; 4.55 on P2X purinoceptor 3; less than 4.00 at P2X purinoceptor 2; 4.16 on P2X purinoceptor 1.
On the same counts, the results for `CCN(CC)C(=O)N1c2ccccc2C=Cc2ccccc21` are less than 4.00, 4.16, 4.85, less than 4.00 and 4.60.
For `CC(C)N(C(=O)N1c2ccccc2C=Cc2ccccc21)C(C)C`, the negative logarithm of the IC50 (pIC50) is 4.83 on P2X purinoceptor 4; 4.02 on P2X purinoceptor 7; 5.14 at P2X purinoceptor 3; less than 4.00 at P2X purinoceptor 2; 5.27 on P2X purinoceptor 1.
